{"source": "paper PMC6321537", "about": "(Molecules, 2018)", "key": {"[1]": {"assay": "Solubility measurements in injection media (excess powder, HPLC)", "assay_type": "physicochemical", "conditions": "for solubility at 72 h: thermodynamic from solid; for aqueous solubility as times that of the parent drug (PTX): relative to PTX 0.4 μg/mL", "protocol": "The flow rate was 1 mL/min, with the mobile phase starting at 50% acetonitrile and 50% water and transitioning to 60% acetonitrile and 40% water at 13 min, then returning to 50% acetonitrile and 50% water at 25 min. Chromatographic peaks of the three compounds were identified based on their retention times and chromatographic responses. Peak area measurements were utilized to regress calibration curves to determine each compound.\nThe test system was shaken at 25 °C for 72 h, then centrifugated at 10,000 rpm for 10 min. Each supernate was collected and 0.22 μm filtered off, then determined by HPLC."}, "[2]": {"assay": "Log P by miniaturized shake flask method (n-octanol/water)", "assay_type": "physicochemical", "conditions": "shaken 24 h, mean ± SD, n = 4", "protocol": "Log P and was determined by a miniaturized shake flask method. Briefly, the organic phase consisted of n-octanol saturated with water. Respectively, the aqueous phase consisted of water saturated with n-octanol."}, "[3]": {"tested_on": "breast cancer cells MDA-MB-231", "assay": "MTT cytotoxicity assay", "assay_type": "cell-based", "conditions": "Homo sapiens", "protocol": "(§1) In vitro anti-cancer effects against cancer cells and safety to normal cells of the prodrugs were evaluated by cytotoxicity.\n(§2) MDA-MB-231 cells were seeded in a 96-well transparent plate, at a density of 5000 cells/well. […] After 72 h incubation, the plates were washed with HBSS and MTT solution was added. The final concentration of MTT in each well was 0.5 mg/mL. Then 4 h later, the solution on the plate was removed and the content was dissolved with DMSO [33].The absorption was measured at 490 nm and cell viability was calculated, cell viability% = OD of treated cells/OD of untreated cells × 100% [51]."}, "[4]": {"tested_on": "normal breast cells Hs578Bst", "assay": "MTT cytotoxicity assay", "assay_type": "cell-based", "protocol": "as §1, §2"}, "[5]": {"tested_on": "ovarian cancer cells A2780", "assay": "MTT cytotoxicity assay", "assay_type": "cell-based", "conditions": "Homo sapiens"}, "MDA-MB-231 cells": {"tested_on": "MDA-MB-231 cells", "assay": "Annexin V-FITC/PI apoptosis assay (flow cytometry)", "assay_type": "cell-based", "conditions": "MDA-MB-231, 1 μM, 24 h", "protocol": "Cell apoptosis was tested by an Annexin V-FITC/PI staining assay and analyzed by flow cytometry, the result is illustrated in Figure 6. According to Figure 6a, the four regions represent different cell stages. Q1 represents necrotic cells ([…]), Q2 and Q3 represent late apoptotic cells (Annexin V+/PI+) and early apoptotic cells (Annexin V+/PI–), and Q4 represents normal cells (Annexin V–/PI–).\nMDA-MB-231 cells were seeded in a 6-well transparent plate, at a density of 5 × 10^5 cells/well. […] After 24 h incubation, the cells were harvested by trypsin, washed with HBSS, and 1 mL of binding buffer (containing Annexin V-FITC and PI) was added, final concentration of Annexin V-FITC and PI were both 1 μg/mL [52]. After that, the test system was incubated in the dark for 10 min, then analysis was immediately conducted by flow cytometry. The fluorescence intensity of Annexin V-FITC was measured at an excitation/emission wavelength of 488/530 nm, the fluorescence intensity of PI was measured at an excitation/emission wavelength of 488/617 nm. Each assay was repeated in triplicate."}, "[6]": {"assay": "Solubility of SG-PTX at various pH conditions", "assay_type": "physicochemical", "protocol": "An aqueous solution of different pH was adjusted by HCl or NaOH, Excess powder of SG-PTX was added to solutions of different pH, respectively. The test system was shaken at 25 °C for 72 h, then centrifugation at 10,000 rpm for 10 min. Each supernate was collected and 0.22 μm filtered off, then determined by HPLC."}, "[7]": {"assay": "Solubility of SG-PTX in various formulations (surfactant solutions)", "assay_type": "physicochemical", "conditions": "for solubility at 72 h: 25 °C, aqueous with cosolvent or surfactant or cyclodextrin, thermodynamic from solid, no ethanol, read-out: solubility in formulation", "protocol": "Solubility of SG-PTX in various formulations was tested, SG-PTX was added into formulations with different proportion (v/v) of water and surfactants. These solubility tests were carried out according to the same protocol as aqueous solubility assays.\nSolutions of different surfactants (Cremophor EL, Tween-80, and PEG-400) were prepared at different concentrations of 2.5%, 5%, 10%, and 15% (v/v). Excess powder of SG-PTX was added into different formulations, respectively. The test system was shaken at 25 °C for 72 h, then centrifugation at 10,000 rpm for 10 min. Each supernate was collected and 0.22 μm filtered off, then determined by HPLC."}, "[8]": {"conditions": "cited from earlier work"}, "[9]": {"conditions": "25 °C, saline or isotonic, 5% glucose solution, 25 °C, shaken 72 h, mean ± SD, n = 4, read-out: Solubility, 5% Glucose"}, "[10]": {"conditions": "25 °C, saline or isotonic, saline, 25 °C, shaken 72 h, mean ± SD, n = 4, read-out: Solubility, Saline"}, "[11]": {"conditions": "25 °C, water, pure water, 25 °C, shaken 72 h, mean ± SD, n = 4, read-out: Solubility, Pure Water"}}, "note": "Like-named read-outs stand apart in the source and are kept apart here.", "data": [{"smiles": "CC(=O)O[C@H]1C(=O)[C@]2(C)[C@@H](OC(=O)CCC(=O)OC3O[C@H](CO)[C@@H](O)[C@H](O)[C@H]3O)C[C@H]3OC[C@@]3(OC(C)=O)[C@H]2[C@H](OC(=O)c2ccccc2)[C@]2(O)C[C@H](OC(=O)[C@H](OC(=O)CCC(=O)OC3O[C@H](CO)[C@@H](O)[C@H](O)[C@H]3O)[C@@H](NC(=O)c3ccccc3)c3ccccc3)C(C)=C1C2(C)C", "note": "(stereo partly shown) [DG-PTX, C7 and C2′-double glycosylated paclitaxel]", "values": [{"measurement": "solubility at 72 h", "setting": "[1]; [9]", "result": "34.8 ± 4.22", "unit": "µg/mL"}, {"measurement": "solubility at 72 h", "setting": "[1]; [10]", "result": "36.7 ± 2.05", "unit": "µg/mL"}, {"measurement": "solubility at 72 h", "setting": "[1]; [11]", "result": "39 ± 5.66", "unit": "µg/mL"}, {"measurement": "aqueous solubility as times that of the parent drug (PTX)", "setting": "[1]", "result": 97.4, "unit": "times"}, {"measurement": "logP at 24 h", "setting": "[2]", "result": "2.12 ± 0.08"}, {"measurement": "IC50", "setting": "[3]; MDA-MB-231, 72 h", "result": 395, "unit": "nM"}, {"measurement": "IC50", "setting": "[4]; Hs578Bst, 72 h", "result": "> 2000", "unit": "nM"}, {"measurement": "IC50", "setting": "[5]; A2780, 72 h", "result": 1610, "unit": "nM"}, {"measurement": "total percentage of apoptotic cells (late apoptosis + early apoptosis)", "setting": "MDA-MB-231 cells", "result": 14.6, "unit": "%"}]}, {"smiles": "CC(=O)O[C@H]1C(=O)[C@@]2(C)[C@H]([C@H](OC(=O)c3ccccc3)[C@]3(O)C[C@H](OC(=O)[C@H](OC(=O)CCC(=O)OC4O[C@H](CO)[C@@H](O)[C@H](O)[C@H]4O)[C@@H](NC(=O)c4ccccc4)c4ccccc4)C(C)=C1C3(C)C)[C@]1(OC(C)=O)CO[C@@H]1C[C@@H]2O", "note": "(stereo partly shown) [SG-PTX, C2′-single glycosylated paclitaxel]", "values": [{"measurement": "solubility at 72 h", "setting": "[1]; [9]", "result": "17.9 ± 0.28", "unit": "µg/mL"}, {"measurement": "solubility at 72 h", "setting": "[1]; [10]", "result": "17.83 ± 0.09", "unit": "µg/mL"}, {"measurement": "solubility at 72 h", "setting": "[1]; [11]", "result": 17.9, "unit": "µg/mL"}, {"measurement": "Solubility, Pure Water", "setting": "[1]; pure water, 25 °C, shaken 72 h, mean ± SD, n = 4", "result": "19.93 ± 4.07", "unit": "µg/mL"}, {"measurement": "aqueous solubility as times that of the parent drug (PTX)", "setting": "[1]", "result": 49.8, "unit": "times"}, {"measurement": "logP at 24 h", "setting": "[2]", "result": "2.77 ± 0.16"}, {"measurement": "IC50", "setting": "[3]; MDA-MB-231, 72 h", "result": 149, "unit": "nM"}, {"measurement": "IC50", "setting": "[4]; Hs578Bst, 72 h", "result": 1670, "unit": "nM"}, {"measurement": "IC50", "setting": "[5]; A2780, 72 h", "result": 1080, "unit": "nM"}, {"measurement": "total percentage of apoptotic cells (late apoptosis + early apoptosis)", "setting": "MDA-MB-231 cells", "result": 21.23, "unit": "%"}, {"measurement": "solubility at 72 h", "setting": "[6]; aqueous solution, pH adjusted with HCl or NaOH, aqueous buffer, thermodynamic from solid, pH 9 and pH 10, water and two common injection media, 25 °C", "result": "~27", "unit": "µg/mL"}, {"measurement": "change of solubility with pH", "setting": "[6]; pH level of 1 to 8", "result": "no significant change"}, {"measurement": "solubility at 72 h", "setting": "[7]; 2.5% (v/v) Cremophor EL in water", "result": 807, "unit": "µg/mL"}, {"measurement": "solubility at 72 h", "setting": "[7]; 2.5% (v/v) Tween-80 in water", "result": 468, "unit": "µg/mL"}, {"measurement": "solubility at 72 h", "setting": "[7]; 15% (v/v) Cremophor EL in water", "result": 1320, "unit": "µg/mL"}, {"measurement": "solubility at 72 h", "setting": "[7]; 15% (v/v) Tween-80 in water", "result": 961, "unit": "µg/mL"}, {"measurement": "solubility in formulation", "setting": "[7]; PEG-400 in water, compared with Cremophor EL and Tween-80", "result": "the lowest"}]}, {"smiles": "CC(=O)O[C@H]1C(=O)[C@@]2(C)[C@H]([C@H](OC(=O)c3ccccc3)[C@]3(O)C[C@H](OC(=O)[C@H](O)[C@@H](NC(=O)c4ccccc4)c4ccccc4)C(C)=C1C3(C)C)[C@]1(OC(C)=O)CO[C@@H]1C[C@@H]2O", "note": "[PTX, Paclitaxel, reference compound]", "values": [{"measurement": "solubility at 72 h", "setting": "[1]; 5% glucose solution, 25 °C, saline or isotonic, 5% glucose solution, 25 °C, shaken 72 h, mean ± SD, n = 4, read-out: Solubility, 5% Glucose", "result": "< 1", "unit": "µg/mL"}, {"measurement": "solubility at 72 h", "setting": "[1]; pure water, 25 °C, water, pure water, 25 °C, shaken 72 h, mean ± SD, n = 4, read-out: Solubility, Pure Water", "result": "< 1", "unit": "µg/mL"}, {"measurement": "solubility at 72 h", "setting": "[1]; saline, 25 °C, saline or isotonic, saline, 25 °C, shaken 72 h, mean ± SD, n = 4, read-out: Solubility, Saline", "result": "< 1", "unit": "µg/mL"}, {"measurement": "IC50", "setting": "[3]; MDA-MB-231, 72 h incubation, MTT, read-out: IC50", "result": 30.5, "unit": "nM"}, {"measurement": "IC50", "setting": "[4]; Hs578Bst normal breast cells, 72 h incubation, MTT, read-out: IC50", "result": 632, "unit": "nM"}, {"measurement": "IC50", "setting": "[5]; A2780, 72 h incubation, MTT, read-out: IC50", "result": 194, "unit": "nM"}, {"measurement": "total percentage of apoptotic cells (late apoptosis + early apoptosis)", "setting": "MDA-MB-231 cells", "result": 37.5, "unit": "%"}, {"measurement": "Log P", "setting": "[8]", "result": "3.97 [27]"}]}]}
